Key:
Pneumocystis carinii [1] = test: Anti-P. carinii activity in immunosuppressed rat model (lung cyst counts); type: in vivo, Sprague-Dawley rats; conditions: for anti-P. carinii activity / mean cyst counts when given intravenously (in words): Formula I amidoximes, intravenous; for % saline, ORAL DOSING / % saline, IV DOSING: Table 2; for % saline, ORAL DOSING: oral by gavage daily for 14 days @33 μmol/kg body weight; for % saline, IV DOSING: tail vein injection daily for 14 days at 22 mg/kg body weight; for anti-P. carinii activity when given orally (in words): Formula I series, orally by gavage once daily for 14 days
Experimental: The activity of the compounds of Formula I against P. carinii was carried out according to an established method. See Tidwell, R. R., et al., J. Protozool. […] Agents Chemother. […] Agents Chemother. […] Briefly, male Sprague-Dawley rats (barrier raised, not certified virus-free) weighing 150-200 g each, were obtained (Hilltop Laboratories, Scottsdale, Pa.). Immediately upon arrival, the animals were caged individually and begun on a low protein (8%) diet and on drinking water containing tetracycline (0.5 mg/mL) and dexamethasone (1.0 μ/mL). This regimen was continued for eight weeks. At the beginning of the seventh week, animals were divided into groups of 8 or more, and the test compounds were administered for 14 days. Saline and pentamidine-treated groups were included as controls.
Animals were sacrificed at the end of the eighth week by chloroform inhalation. The left lung was weighed, ground through a No. 60 wire mesh screen, and suspended 1:10 (wt/vol) in 10 mM β-mercaptoethanol-Hanks' balanced salts solution (HBSS) without cations. Slides were prepared by spotting 5 μL of lung homogenate diluted 1:10 in HBSS with β-mercaptoethanol and allowed to air dry. The slides were stained with cresyl violet, and the cysts were counted by a blinded protocol. The number of cysts per gram of original lung tissue was calculated, and the groups were reported as the percentages of saline-treated controls.
The anti-P. carinii value for each compound is expressed as the percent of cysts in the treatment group as compared to the saline control group. Values are also compared to a positive control group consisting of animals treated intravenously with pentamidine.

[2] = Acute toxicity of single doses in normal rats; type: in vivo; conditions: for time after injection to recovery: single IV 80 μmol/kg; for overt toxic responses after single oral doses: single oral doses as high as 160 μmol/kg; for overt acute adverse reactions following single intravenous injections, compared to the bis-benzamidines: single tail vein injection; for time after injection to recovery / persistence of symptoms: single IV 160 μmol/kg
[3] = In vitro metabolism by rat tissue homogenate 9000×g supernatants (HPLC); type: in vitro ADME; conditions: for metabolism by rat liver homogenate 9000×g supernatants: 167 μM substrate plus cofactor solution, 37EC, 10 minutes, FIG. 1
Experimental: In vitro metabolism of diamidoximes 1, 3, 5, and 7 by rat liver homogenate 9000×g supernatants, post-mitochondrial 105,000×g supernatants or microsomal fractions were performed as previously described in B. J. Berger et al., Antimicrob. Agents and Chemotherapy 36, 1825-1831 (1992); B. J. Berger et al., J. Pharmacol. Experimental Therapeutics 256, 883-89 (1991). Briefly, adult male Sprague-Dawley rats, barrier raised, (Hilltop Laboratories, Scottsdale, Pa.) animals were given water and rat chow (Agway, Syracuse, N.Y.) ad libitum. The rats were euthanized by decapitation, the livers removed immediately, rinsed with 50 mM potassium phosphate buffer, pH 7.4, and placed on ice. All subsequent steps were performed at 4EC. The livers were minced, homogenized, and 9000×g supernatants, 105,000×g or 105,000×g microsomal pellets prepared. Each fraction was assayed for protein content as described in M. M. Bradford, Anal. Biochem. 72, 248-254 (1976) and stored at −80EC. Fractions from the rat kidneys, lungs, hearts and brains were prepared similarly.
Reaction mixtures consisted of 1.5 mL 50 mM potassium phosphate buffer, pH 7.4, 0.5 mL cofactor solution (2 mg/mL NADPH, 1.6 mg/mL MgCl2, 1.04 mg/mL glucose-6-phosphate and 2 units/mL glucose-6-phosphate dehydrogenase in 50 mM potassium phosphate buffer pH 7.4), 0.5 mL tissue homogenate and 0.5 mL of the appropriate diamidoxime substrate at a concentration of 167 μM. Reactions were started by adding substrate, then mixtures were incubated at 37EC in a shaking water bath for times shown in the figures. Reactions were terminated by extracting over C18 cartridges and assaying as described below.
(§1) Samples were extracted using solid phase extraction and assayed using high performance liquid chromatography (HPLC) by methods similar to those previously described in Berger et al. (1992) and Berger et al., (1991), supra. Briefly, samples spiked with 2,5-bis[4-(N-isopropylamidino)phenyl]furan dihydrochloride as the internal standard (IS) were extracted over activated C18 Bond Elut cartridges (Varian Associates, Sunnydale, Calif.), washed with water, 100% acetonitrile, then eluted with 75% acetonitrile/25% water containing 15 mm triethylamine and 35 mM acetic acid. The diamidoxime substrates elute in the 100% acetonitrile phase, while mono-amidine and diamidine products elute in the acetonitrile/water mixture containing triethylamine and acetic acid. Elutes were evaporated to dryness at 40EC under a gentle stream of nitrogen and resuspended in HPLC grade water.
Compounds were resolved using a Hewlett-Packard (Avondale, Pa.) model 1090 HPLC equipped with a HP 1050 variable wavelength detector set at 265 nm, a 4.6×250 mm Zorbax RX diisopropyl C8 column (Mac-Mod, Chadd's Ford, PA) maintained at 40EC and a Vectra 486/66U computer with HP Chemstations software. The mobile phase consisted of 15 mM triethylamine and 35 mM acetic acid in HPLC grade water for pump A, and 15 mM triethylamine and 35 mM acetic acid in 75% acetonitrile in water for pump B. The solvent flow rate was 1.5 mL/min, and the solvent gradient ran from 0% B to 25% B at 22 min, to 40% B at 25 min, then 90% B at 35 min. All solvents and reagents used for the assays were HPLC grade. Quantities of metabolites formed were calculated, using peak area rations of authentic standard, from standard addition curves generated by spiking standards into tissue homogenates or tissue culture medium.

BRL 3A hepatocytes = test: Metabolism in intact cultured cells (HPLC of culture supernatants); type: in vitro ADME; conditions: 10 μM substrate, 24 hours, 37EC; extracellular medium assayed; FIG. 4
Experimental: Metabolic experiments with intact cultured cells were performed using the BRL 3A hepatocyte line, obtained from the UNC-Chapel Hill Lineberger Tissue Culture Facility. Cells were routinely cultured in Costar (Cambridge, Mass.) 25 cm^2 of tissue culture flasks at 37EC under moist 5% CO2 and 95% air in Ham's F-12 medium (Gibco, Gaithersburg, Md.) containing 5% fetal bovine serum (HyClone Laboratories Inc., Logan, Utah). Confluent cultures were treated with 0.25% trypsin solution (Sigma Chemical Co., ST. Louis Mo.), then approximately 2×10^5 cells/well subcultured into Costar 6-well tissue culture chambers and the cells allowed to grow to confluency. Ten mL fresh medium was added to each culture well and incubations were started by adding 100 μL amidoxime solution (prepared in sterile water) to a final concentration of 10 μM. Cell cultures were incubated at 37EC under moist 5% CO2 and 95% air for 24 hours, then aliquots of culture supernatants extracted and assayed for metabolites as described below. Similar metabolic experiments were performed with cultured J774 A.1 mouse monocyte-macrophage cells cultured in DMEM F-12 medium containing 10% fetal bovine serum and H9c2 rat heart myoblast cells cultured in DMEM H medium containing 10% fetal bovine serum.
as §1
Compounds were resolved using a Hewlett-Packard (Avondale, Pa.) model 1090 HPLC equipped with a HP 1050 variable wavelength detector set at 265 nm, a 4.6×250 mm Zorbax RX diisopropyl C8 column (Mac-Mod, Chadd's Ford, PA) maintained at 40EC and a Vectra 486/66U computer with HP Chemstations software. […] Quantities of metabolites formed were calculated, using peak area rations of authentic standard, from standard addition curves generated by spiking standards into tissue homogenates or tissue culture medium.

Pneumocystis carinii [4] = conditions: immunosuppressed rat model, D. W. Boykin et al., J. Med. Chem. 38, 912 (1995); cited from earlier work
[5] = Subjective scale of toxicity and tolerance during treatment in the immunosuppressed rat model; conditions: subjective scale
Description: ^b subjective scale of toxicity. […] In general, the larger the value the more severe the toxicity, with values greater than 2 indicating the death of some animals

Structure (SMILES)	anti-P. carinii activity / mean cyst counts when given intravenously (in words) (Pneumocystis carinii [1])	% saline, ORAL DOSING (Pneumocystis carinii [1])	% saline, IV DOSING (Pneumocystis carinii [1])	observed acute toxicity after single intravenous injection ([2]; normal rats, 80 μmol/kg)	time after injection to recovery ([2]; normal rats)	overt toxic responses after single oral doses ([2]; normal rats)	overt acute adverse reactions following single intravenous injections, compared to the bis-benzamidines ([2]; normal rats)	metabolism by rat liver homogenate 9000×g supernatants [3]	metabolism in intact BRL 3A hepatocytes (BRL 3A hepatocytes)	anti-P. carinii activity when given orally (in words) (Pneumocystis carinii [1])	observed acute toxicity after single intravenous injection ([2]; normal rats, 160 μmol/kg)	time after injection to recovery / persistence of symptoms ([2]; normal rats)	also measured
NC(=NO)c1ccc(OCCCCCOc2ccc(C(N)=NO)cc2)cc1.O=C(O)/C=C\C(=O)O.O=C(O)/C=C\C(=O)O [Compound 1, 1,5-bis(4′-(N-hydroxyamidino)phenoxy)pentanedi-hemimaleinate]	significantly reduced compared to saline controls	19.27 % saline	0.15 % saline	Minor toxic responses, including barely observable hindleg ataxia and slight hypoactivity	5 min	No overt toxic responses	greatly reduced	forming large quantities of the monoamidine-monoamidoxime derivative, and smaller amounts of pentamidine	metabolized predominantly to the corresponding diamidine				observed acute toxicity after single intravenous injection ([2]; normal rats, bolus injections above 120 μmol/kg): severe dyspnea and profound hypoactivity; observed acute toxicity after single intravenous injection ([2]; normal rats, from 20 to 60 μmol/kg): no observable adverse reactions; metabolism by 9000×g supernatants of homogenates of rat liver, kidney, lung and heart ([3]; FIG. 3A-3D): into its amidine analog pentamidine
NC(=NO)c1ccc(OCCCCOc2ccc(C(N)=NO)cc2)cc1.O=C(O)/C=C\C(=O)O.O=C(O)/C=C\C(=O)O [Compound 3, 1,4-bis(4′-(N-hydroxyamidino)phenoxy)butanedi-maleinate]	significantly reduced compared to saline controls	1.43 % saline	0.12 % saline					metabolized similarly	metabolized predominantly to the corresponding diamidine	most active			
NC(=NO)c1ccc(OCCCOc2ccc(C(N)=NO)cc2)cc1.O=C(O)/C=C\C(=O)O.O=C(O)/C=C\C(=O)O [Compound 5, 1,3-bis(4′-(4-hydroxyamidino)phenoxy)propanedi-hemimaleinate]	significantly reduced compared to saline controls	2.25 % saline	0.03 % saline			No overt toxic responses	greatly reduced	metabolized similarly	metabolized predominantly to the corresponding diamidine	most active	only minor ataxia and/or hypoactivity	5 min	observed acute toxicity after single intravenous injection ([2]; normal rats, 20, 40 or 80 μmol/kg): no overt toxicity
COc1cc(C(N)=NO)ccc1OCCCOc1ccc(C(N)=NO)cc1OC.O=C(O)/C=C\C(=O)O.O=C(O)/C=C\C(=O)O [Compound 7, 1,3-bis(2′-methoxy-4′-(N-hydroxyamidino)phenoxy)propanedi-hemimaleinate]	significantly reduced compared to saline controls	3.71 % saline	0.03 % saline	only very minor hypoactivity and dyspnea	5 min	No overt toxic responses	greatly reduced	metabolized similarly	metabolized predominantly to the corresponding diamidine	most active	pronounced hypoactivity, dyspnea, cyanosis, and increased salivation and lacrimation	approximately 10 minutes	observed acute toxicity after single intravenous injection ([2]; normal rats, 20 or 40 μg/kg): no observable adverse effects
N=C(N)c1ccc(-c2ccc(-c3ccc(C(=N)N)cc3)o2)cc1 [Compound 9, 2,5-bis-[4-amidinophenyl]furan, reference compound]													activity on oral administration, furan series (in words) (Pneumocystis carinii [1]; immunosuppressed rat model, orally by gavage): significantly less; activity and toxicity compared with pentamidine on intravenous dosage (Pneumocystis carinii [4]): more active and less toxic than pentamidine; Toxicity, IV DOSING ([5]; 0.03 μmol/kg/day): 0; Toxicity, IV DOSING ([5]; 0.3 μmol/kg/day): 0; Toxicity, IV DOSING ([5]; 2.7 μmol/kg/day): 0; Toxicity, IV DOSING ([5]; 13.3 μmol/kg/day): 0; Toxicity, IV DOSING ([5]; 26.6 μmol/kg/day): +1; Toxicity, ORAL DOSING ([5]; 39.8 μmol/kg/day): 0; Toxicity, ORAL DOSING ([5]; 66.3 μmol/kg/day, larger = more severe): 0
